In data set [1] the test system is HEK-293T. In words: Agonist activity against human STING R232H variant transfected in HEK-293T cells co-expressing ISRE.ISG54 at 0.5 uM by luciferase reporter gene assay relative to control. Type of data set: cell-based.
Data set [2] relates to HEK-293T. In words: Agonist activity against human STING R232H variant transfected in HEK-293T cells co-expressing ISRE.ISG54 at 1 uM by luciferase reporter gene assay relative to control. Format: cell-based. (In a reporter assay the amount or activity of a reporter protein is the signal.)
In data set [3] the test system is HEK-293T. In words: Agonist activity against human STING R232H variant transfected in HEK-293T cells co-expressing ISRE.ISG54 at 0.2 uM by luciferase reporter gene assay relative to control. Type of data set: cell-based. The note with it: filed as agonist.
A short description of data set [4]: Agonist activity against human STING R232H variant transfected in HEK-293T cells co-expressing ISRE.ISG54 by luciferase reporter gene assay. Type of data set: cell-based. The conditions noted are these: Homo sapiens, HEK-293T.
In data set [5] the test system is HEK-293T. In words: Agonist activity against human STING R232H variant transfected in HEK-293T cells co-expressing ISRE.ISG54 at 5 uM by luciferase reporter gene assay relative to control. Format: cell-based.
Data set [6] addresses T1, Stimulator of interferon genes protein (Homo sapiens, UniProt Q86WV6). In words: Agonist activity against human STING HAQ variant expressed in HEK-293T cells co-expressing ISRE.ISG54 incubated for 18 hrs by luciferase reporter gene assay. Format: cell-based.
The nature of data set [7]: AUC in Balb/c mouse at 25 mg/kg, iv measured by LC-MS/MS analysis. The note with it: in vivo. Format: ADME, organism-based. On the set-up: dose 25 mg/kg.
Data set [8] has as its target T1, Stimulator of interferon genes protein. The data set is described as follows: Agonist activity against human STING AQ variant transfected in HEK-293T cells co-expressing ISRE.ISG54 incubated for 18 hrs by luciferase reporter gene assay. Type of data set: cell-based.
Data set [9] relates to PBMC. In words: Effect of compound on IRF3 phosphorylation in cynomolgus monkey PBMC cells at 10 uM for 2 hrs by immunoblotting. The note with it: Macaca fascicularis. Type of data set: functional, cell-based. For orientation: In western blotting, separated proteins are transferred to a membrane and probed.
Data set [10] is described as follows: Half life in Balb/c mouse at 25 mg/kg, po measured by LC-MS/MS analysis. Type of data set: ADME, organism-based. The conditions noted are these: in vivo.
Data set [11] concerns PBMC. The data set is described as follows: Effects of compound on IFN-alpha production in cynomolgus monkey PBMC cells assessed as increase in […] level at 10 uM and measured upto 24 hrs by ELISA. Format: functional, cell-based. The conditions noted are these: Macaca fascicularis. (In general: An ELISA detects its analyte on a solid surface through an enzyme-linked reagent.)

Data set [12] can be described thus: Cmax/C0 in monkey at 2.5 mg/kg, iv measured by LC-MS/MS analysis. The conditions noted are these: rhesus monkey, in vivo. Format: ADME, organism-based, Macaca mulatta. On the set-up: route intravenous, dose 2.5 mg/kg.
Data set [13] in a line: Oral bioavailability in Balb/c mouse at 25 mg/kg measured by LC-MS/MS analysis. Type of data set: ADME, organism-based. The note with it: in vivo.
The test system of data set [14] is PBMC. In words: Effect of compound on STING phosphorylation in cynomolgus monkey PBMC cells at 10 uM for 2 hrs by immunoblotting. Type of data set: functional, cell-based. The note with it: Macaca fascicularis.
A short description of data set [15]: AUC in Balb/c mouse at 25 mg/kg, po measured by LC-MS/MS analysis. The note with it: in vivo. On the set-up: dose 25 mg/kg. Format: ADME, organism-based.
Data set [16] in a line: Agonist activity against cynomolgus monkey STING expressed in HEK-293T cells co-expressing co-expressing ISRE.ISG54 by luciferase reporter gene assay. The conditions noted are these: Macaca fascicularis. Type of data set: cell-based.
The nature of data set [17]: Half life in Balb/c mouse at 25 mg/kg, iv measured by LC-MS/MS analysis. Type of data set: ADME, organism-based. The note with it: in vivo.
The test system of data set [18] is PBMC. In words: Effects of compound on IFN-beta production in cynomolgus monkey PBMC cells assessed as increase in […] level at 10 uM and measured upto 24 hrs by ELISA. Type of data set: functional, cell-based. The conditions noted are these: Macaca fascicularis.
Data set [19] can be described thus: Cmax/C0 in Balb/c mouse at 25 mg/kg, iv measured by LC-MS/MS analysis. Type of data set: ADME, organism-based. Details: route intravenous, dose 25 mg/kg. The note with it: in vivo.
For data set [20], the system named is PBMC. The data set is described as follows: Effects of compound on IL-6 production in cynomolgus monkey PBMC cells assessed as increase in IL-6 level at 10 uM and measured upto 24 hrs by ELISA. The conditions noted are these: Macaca fascicularis. Type of data set: functional, cell-based.
Data set [21] deals with T1, Stimulator of interferon genes protein. In words: Agonist activity against human STING Q variant expressed in HEK293T cells co-expressing ISRE.ISG54 incubated for 18 hrs by luciferase reporter gene assay. Type of data set: cell-based. The conditions noted are these: hek-293t.
Data set [22] shares this target. In words: Agonist activity against human STING H232 variant transfected in HEK-293T cells co-expressing ISRE.ISG54 incubated for 18 hrs by luciferase reporter gene assay. Format: cell-based.
The target is the same in data set [23]. In words: Agonist activity against human STING HAQ variant expressed in THP-1 cells co-expressing ISRE.ISG54 incubated for 18 hrs by luciferase reporter gene assay. Type of data set: cell-based.
The nature of data set [24]: Half life in monkey at 2.5 mg/kg, iv measured by LC-MS/MS analysis. Type of data set: ADME, organism-based, Macaca mulatta. The note with it: rhesus monkey, in vivo.
Data set [25] is described as follows: Cmax/C0 in Balb/c mouse at 25 mg/kg, po measured by LC-MS/MS analysis. The note with it: in vivo. Type of data set: ADME, organism-based. On the set-up: route oral, dose 25 mg/kg.
A short description of data set [26]: AUC in monkey at 2.5 mg/kg, iv measured by LC-MS/MS analysis. The note with it: rhesus monkey, in vivo. Format: ADME, organism-based, Macaca mulatta. On the set-up: dose 2.5 mg/kg.
Data set [27] deals with Stimulator of interferon genes protein (Homo sapiens), Q86WV6 [UNDEFINED MUTATION]. In words: Binding affinity to human STING R232 variant expressed in HEK-293T cells assessed as increase in thermal stability measured between 51 and 56 deg C at 10 uM for 2 hrs by cellular thermal shift assay. Format: cell-based. The note with it: filed as agonist.

pEC50: −log10 of the molar value. The source made the active and inactive calls. The calls are words filed in the database; no cut-off is given here.

T1 sequence (Q86WV6 whole entry, looked up, stated change not applied): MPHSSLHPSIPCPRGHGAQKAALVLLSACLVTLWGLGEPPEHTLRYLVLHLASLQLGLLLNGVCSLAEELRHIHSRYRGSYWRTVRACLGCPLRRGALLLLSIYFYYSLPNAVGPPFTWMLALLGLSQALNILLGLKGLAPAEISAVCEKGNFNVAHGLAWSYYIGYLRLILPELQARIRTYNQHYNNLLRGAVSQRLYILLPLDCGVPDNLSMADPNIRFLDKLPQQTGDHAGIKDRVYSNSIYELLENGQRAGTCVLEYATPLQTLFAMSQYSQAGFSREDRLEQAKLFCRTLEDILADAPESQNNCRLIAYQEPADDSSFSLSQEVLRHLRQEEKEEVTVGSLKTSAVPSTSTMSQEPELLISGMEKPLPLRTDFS
Stimulator of interferon genes protein (Homo sapiens), Q86WV6 [UNDEFINED MUTATION], sequence (Q86WV6 whole entry, looked up, change not shown): as the sequence (Q86WV6 whole entry, looked up, stated change not applied) above

`Cc1cc(CN2C(=O)N(C)C(C)c3ccc(C(=O)NCc4c(F)cc(F)cc4F)cc32)on1` (stereo unspecified) displayed an Activity in the data set with HEK-293T [1] of 6%.

Compound `CC1c2ccc(C(=O)NCc3c(F)cc(F)cc3F)cc2N(Cc2ccccc2F)C(=O)N1C` (stereo unspecified) showed an Activity in the data set with HEK-293T [1] (filed as agonist) of 54%.

As to `CC1c2ccc(C(=O)NCc3c(F)cc(F)cc3F)cc2N(Cc2cc(C(N)=O)ccc2F)C(=O)N1C` (stereo unspecified), the Activity in the data set on HEK-293T [2] (filed as agonist) was 71%.

Consider `Cc1cc(CN2C(=O)N(C)C(C)c3ccc(C(=O)NCc4c(F)cc(F)cc4F)cc32)no1` (stereo unspecified), for which, in the data set with HEK-293T [1], the Activity came out at 6%.

Consider `CC1c2ccc(C(=O)NCc3c(F)cc(F)cc3F)cc2N(Cc2ccccc2)C(=O)N1C` (racemic), for which the Activity in the data set on HEK-293T [2] (filed as agonist) was 73%; with HEK-293T [1] (filed as agonist), 74%.

As for `CC1c2ccc(C(=O)NCc3c(F)cc(F)cc3F)cc2N(Cc2cc(F)cc(F)c2)C(=O)N1C` (racemic), in the data set with HEK-293T [3], the Activity stood at 81%.

Regarding `Cc1cc(CN2C(=O)N(C)C(C)c3ccc(C(=O)NCc4c(F)cc(F)cc4F)cc32)c(F)cn1` (stereo unspecified), the Activity in the data set with HEK-293T [1] (filed as agonist) amounted to 64%.

Compound `CC1c2ccc(C(=O)NCc3c(F)cc(F)cc3F)cc2N(Cc2c(F)cccc2F)C(=O)N1C` (racemic) came in with an Activity with HEK-293T [2] (filed as agonist) of 64%.

`CC1c2ccc(C(=O)NCc3c(F)cc(F)cc3F)cc2N(Cc2ccc(Cl)cc2F)C(=O)N1C` (stereo unspecified) had an Activity with HEK-293T [2] (filed as agonist) of 65%.

Take `Cc1cc(CN2C(=O)N(C)Cc3ccc(C(=O)NCc4c(F)cc(F)cc4F)cc32)on1`: in the data set with HEK-293T [2], the Activity turned out to be 12%.

One may read the pEC50 as the EC50 on a negative log10 scale, so that one unit is a factor of ten. `Cc1ccc(Cl)c(CN2C(=O)N(C)Cc3ccc(C(=O)NCc4c(F)cc(F)cc4F)cc32)c1F` gave a pEC50 in data set [4] of 6.39. The same compound yielded an Activity with HEK-293T [5] (filed as agonist) of 68%.

With `CC1c2ccc(C(=O)NCc3c(F)cc(F)cc3F)cc2N(Cc2c(F)cccc2S(C)(=O)=O)C(=O)N1C` (stereo unspecified), in the data set with HEK-293T [2] (filed as agonist), the Activity is 61%.

For the compound `Cc1ccc(F)c(CN2C(=O)N(C)C(C)c3ccc(C(=O)NCc4c(F)cc(F)cc4F)cc32)n1` (stereo unspecified), the Activity with HEK-293T [2] (filed as agonist) is 60%.

For `CN1Cc2ccc(C(=O)NCc3c(F)cc(F)cc3F)cc2N(Cc2c(F)cccc2C#N)C1=O`, in the data set on HEK-293T [2], the Activity stood at 15%.

As usually defined, the AUC is concentration integrated over time. A word on the half-life: it is the time in which the quantity being followed falls by half. A word on the Cmax: it is the maximum level reached in the sampled fluid or tissue. In general, bioavailability refers to the share of a dose that reaches the circulation, judged against a reference dose that is usually intravenous. `C[C@H]1c2ccc(C(=O)NCc3c(F)cc(F)cc3F)cc2N(Cc2c(F)cccc2Cl)C(=O)N1C`: the pEC50 in data set [6] is 7.59; in [8], 7.08; in data set [16], 7.00; in [21] it was 7.05; in [22], 7.23; in data set [23] it was 6.47. In addition, in data set [4], the pEC50 is 7.74. Besides, the area under the curve (AUC) turned out to be 10900 ng·h/mL in data set [7], 4850 ng·h/mL in data set [15] and 8050 ng·h/mL in data set [26]. Further, the outcome (with PBMC [9]; in the data set with PBMC [11]; in the data set on PBMC [14]; in the data set with PBMC [18]; in the data set on PBMC [20]; in data set [27]) was Active. The half-life in [10] was 1.6 h; in data set [17], 1.4 h; in data set [24], 7.1 h. Further, the Cmax in data set [12] worked out at 5220 ng/mL; in [19], 20100 ng/mL; in data set [25] it was 2480 ng/mL. In [13], this compound returned a bioavailability of 44%.

In turn, `CN1Cc2ccc(C(=O)NCc3ccccc3F)cc2N(Cc2c(F)cccc2Cl)C1=O` came in with an Activity with HEK-293T [2] of 34%.

In the case of `CN1Cc2ccc(C(=O)NCc3ccc(N4CCCC4=O)cc3)cc2N(Cc2c(F)cccc2Cl)C1=O`, in the data set with HEK-293T [5], the result was inactive.

(Values after ChEMBL document CHEMBL5046256, “The discovery of potent small molecule cyclic urea activators of STING” (Eur J Med Chem, 2022).)
